What is called IC50 is the point on the concentration scale where inhibition reaches its midpoint.

Molecules are shown by their SMILES. Activity calls are given as the source filed them. The calls are words filed in the database; no cut-off is given here.

Here are results for 25 compounds from ChEMBL document CHEMBL5143658, “Synthesis and biological evaluation of imidamide analogs as selective anti-trypanosomal agents” (Bioorg Med Chem, 2022).

Data set [1] has as its system Trypanosoma brucei. Briefly: Antitrypanosomal activity against blood stream form of Trypanosoma brucei Lister 427 assessed as inhibition of parasite growth incubated for 48 hrs by MTS assay. It counts as functional, organism-based. As to conditions: Lister 427, 48 h. Background: Formazan colour is commonly taken as a measure of viable cells.
Data set [2] in a line: Selectivity index, ratio of IC50 for cytotoxicity against mouse RAW264.7 cells to IC50 for antitrypanosomal activity against blood stream form of Trypanosoma brucei Lister 427. As to conditions: read-out: Ratio IC50. In kind it is toxicity, cell-based.
A short description of data set [3]: Cytotoxicity against mouse RAW264.7 cells assessed as inhibition of cell growth incubated for 48 hrs by MTT assay. It counts as toxicity, cell-based.
The nature of data set [4]: Cytotoxicity against HEK293 cells assessed as inhibition of cell growth incubated for 48 hrs by MTT assay. In kind it is toxicity, cell-based. As to conditions: human.
The nature of data set [5]: Selectivity index, ratio of IC50 for cytotoxicity against HEK293 cells to IC50 for antitrypanosomal activity against blood stream form of Trypanosoma brucei Lister 427. As to conditions: human, read-out: Ratio IC50. It counts as toxicity, cell-based.
The subject of data set [6] is Trypanosoma brucei. Nature of the data set: Inhibition of tubulin polymerization in blood stream form of Trypanosoma brucei Lister 427 assessed as reduction in polymerized tubulin level incubated for 12 hrs by Western blot analysis. As to conditions: dose 200-1000 nM.

Turning to `CN(c1ccc(NC(=O)c2cccc(C(=N)N)c2)cc1OCc1ccc(C(F)(F)F)cc1)S(=O)(=O)C(F)(F)F`, the IC50 with Trypanosoma brucei [1] is over 50 µM. In data set [2], the selectivity ratio worked out at 10. In addition, the half-inhibitory concentration (IC50) at 48 h in data set [3] and in data set [4] was over 500 µM in each case.
For `COc1ccc(C(=O)Nc2ccc(NC(=N)N)c(OCc3cc(C)ccc3C)c2)cc1`, in the data set with Trypanosoma brucei [1], the IC50 was 47.9 µM. Besides, the selectivity ratio in data set [2] was 10.4; in data set [5], over 10.4. For the same compound, the IC50 at 48 h in data set [3] and in data set [4] was over 500 µM each time.
Turning to `CCCCCCOc1cc(NC(=O)c2ccc3c(c2)OCO3)ccc1NC(=N)N`, the 50% inhibitory concentration (IC50) in the data set with Trypanosoma brucei [1] is over 50 µM. The selectivity ratio in data set [2] is 9.2; in data set [5], under 7.7. Further, the half-maximal inhibitory concentration (IC50) at 48 h came out at 460 µM in data set [3] and 385 µM in data set [4].
Taken in the same sequence, the figures for `N=C(N)Nc1ccc(NC(=O)c2ccc(C(F)(F)F)cc2C(F)(F)F)cc1OCc1ccc(C(F)(F)F)cc1` were 18.2 µM, 27.5, 15.7, over 500 µM and 286 µM.
On to `CN(c1ccc(NC(=O)c2ccc(C(=N)N)cc2)cc1OCc1ccc(C(F)(F)F)cc1)S(=O)(=O)C(F)(F)F`, for which the IC50 in the data set on Trypanosoma brucei [1] was over 50 µM. Besides, in data set [2], the selectivity ratio turned out to be 10. For the same compound, the IC50 at 48 h in data set [3] and in data set [4] was over 500 µM each time.
For `CN(c1ccc(NC(=O)c2cccc(C(=N)N)c2)cc1OCc1ccc(C(=N)N)cc1)S(=O)(=O)Cc1ccccc1`, in the data set on Trypanosoma brucei [6], the inhibition result is “Active”. In data set [2], the selectivity ratio amounted to 50000. The IC50 at 48 h in data set [3] is over 500 µM.
On to `N=C(N)Nc1ccc(NC(=O)c2ccc3c(c2)OCO3)cc1OCc1cccc(C(F)(F)F)c1`, for which the IC50 in the data set on Trypanosoma brucei [1] worked out at 33.7 µM. Besides, the selectivity ratio in data set [2] was found to be 2.99; in data set [5] it was 9.3. In addition, the IC50 at 48 h in data set [3] amounted to 101 µM; in data set [4] it was 313 µM.
For `CN(c1ccc(NC(=O)c2cccc(C(=N)N)c2)cc1OCc1cccc(C(F)(F)F)c1)S(=O)(=O)Cc1ccccc1` the same measures were 15.3 µM, 32.6, over 32.6, over 500 µM and over 500 µM.
Take `CN(c1ccc(NC(=O)c2cccc(C(=N)N)c2)cc1OCc1ccc(C(F)(F)F)cc1)S(=O)(=O)Cc1ccccc1`: the IC50 in the data set with Trypanosoma brucei [1] is 13.8 µM. For the same compound, the selectivity ratio in data set [2] was 36.3; in data set [5] it was over 36.3. Moreover, the IC50 at 48 h in data set [3] and in data set [4] was over 500 µM in each case.
For the compound `N=C(N)Nc1ccc(NC(=O)c2ccc3c(c2)OCO3)cc1OCc1ccc(C(F)(F)F)cc1`, in the data set on Trypanosoma brucei [1], the 50% inhibitory concentration (IC50) was over 50 µM. For the same compound, the results for the selectivity ratio in data set [2] and in data set [5] were 0.54 and under 6.87, respectively. In addition, the IC50 at 48 h in data set [3] is 27.2 µM; in data set [4], 344 µM.
Take `Cc1ccc(C)c(COc2cc(NC(=O)c3ccc(Cl)c(Cl)c3)ccc2NC(=N)N)c1`: in the data set with Trypanosoma brucei [1], the IC50 was 27.6 µM. Also, the selectivity ratio was 18.1 in data set [2] and over 18.1 in data set [5]. Also, the IC50 at 48 h in data set [3] and in data set [4] was over 500 µM each time.
With `N=C(N)Nc1ccc(NC(=O)c2ccc3c(c2)OCO3)cc1OCc1ccccc1C(F)(F)F`, the IC50 with Trypanosoma brucei [1] is over 50 µM. The results for the selectivity ratio in data set [2] and in data set [5] were 10 and under 9, respectively. Besides, the values for the IC50 at 48 h in data set [3] and in data set [4] were over 500 µM and 450 µM, respectively.
Consider `N=C(N)Nc1ccc(NC(=O)c2ccc(Cl)c(Cl)c2)cc1OCc1ccc(C(F)(F)F)cc1`, for which, in the data set on Trypanosoma brucei [1], the IC50 is over 50 µM. The selectivity ratio in data set [2] is 10. Further, the IC50 at 48 h in data set [3] and in data set [4] was over 500 µM each time.
Turning to `N=C(N)Nc1ccc(NC(=O)c2cc(C(F)(F)F)cc(C(F)(F)F)c2)cc1OCc1ccccc1C(F)(F)F`, in the data set on Trypanosoma brucei [1], the IC50 amounted to 45.1 µM. Further, the selectivity ratio is 10.7 in data set [2] and over 11.1 in data set [5]. Also, the IC50 at 48 h in data set [3] is 481 µM; in data set [4] it was over 500 µM.
For `COc1ccc(OC)c(COc2cc(NC(=O)c3cc(C(F)(F)F)cc(C(F)(F)F)c3)ccc2NC(=N)N)c1` the same measures were over 50 µM, 2.45, under 6.13, 123 µM and 307 µM.
Taken in the same sequence, the figures for `COc1ccc(C(=O)Nc2ccc(NC(=N)N)c(OCc3cccc(C(F)(F)F)c3)c2)cc1` were 27.4 µM, 3.71, 9.58, 102 µM and 263 µM.
Consider `CCCCCCOc1cc(NC(=O)c2ccc(OC)cc2)ccc1NC(=N)N`, for which the IC50 in the data set with Trypanosoma brucei [1] is over 50 µM. The selectivity ratio in data set [2] is 5.17. The IC50 at 48 h is 259 µM in data set [3] and over 500 µM in data set [4].
With `Cc1ccc(C)c(COc2cc(NC(=O)c3cc(C(F)(F)F)cc(C(F)(F)F)c3)ccc2NC(=N)N)c1`, the IC50 in the data set on Trypanosoma brucei [1] stood at 21 µM. The selectivity ratio is 23.8 in data set [2] and over 23.8 in data set [5]. Further, the IC50 at 48 h in data set [3] and in data set [4] was over 500 µM each time.
For `COc1ccc(OC)c(COc2cc(NC(=O)c3ccc4c(c3)OCO4)ccc2NC(=N)N)c1`, the IC50 in the data set with Trypanosoma brucei [1] is over 50 µM. Besides, the selectivity ratio in data set [2] was 10. Moreover, the IC50 at 48 h in data set [3] and in data set [4] was over 500 µM throughout.
Turning to `N=C(N)Nc1ccc(NC(=O)c2ccc(Cl)c(Cl)c2)cc1OCc1ccccc1C(F)(F)F`, in the data set on Trypanosoma brucei [1], the IC50 came out at 15.2 µM. The selectivity ratio is 12.8 in data set [2] and over 32.8 in data set [5]. Further, the concentration for half-maximal inhibition (IC50) at 48 h in data set [3] was 196 µM; in data set [4] it was over 500 µM.
Turning to `Cc1ccc(C(F)(F)F)c(COc2cc(NC(=O)c3cccc(C(=N)N)c3)ccc2N(C)S(=O)(=O)C(F)(F)F)c1`, the IC50 with Trypanosoma brucei [1] came out at 0.22 µM. The selectivity ratio was 3.9 in data set [2] and 114 in data set [5]. In addition, the IC50 at 48 h in data set [3] is 0.86 µM; in data set [4], 25 µM.
Consider `N=C(N)Nc1ccc(NC(=O)c2cc(C(F)(F)F)cc(C(F)(F)F)c2)cc1OCc1ccc(C(F)(F)F)cc1`, for which the IC50 in the data set on Trypanosoma brucei [1] was 16.9 µM. In addition, the results for the selectivity ratio in data set [2] and in data set [5] were 29.6 and 24.6, respectively. In addition, the values for the IC50 at 48 h in data set [3] and in data set [4] were over 500 µM and 416 µM, respectively.
Take `CCS(=O)(=O)N(C)c1ccc(NC(=O)c2cccc(C(=N)N)c2)cc1OCc1ccc(C(=N)N)cc1`: in the data set on Trypanosoma brucei [1], the IC50 was 0.59 µM. Besides, the selectivity ratio came out at 847 in data set [2] and 722 in data set [5]. For the same compound, the half-maximal inhibitory concentration (IC50) at 48 h in data set [3] was over 500 µM; in data set [4] it was 426 µM.
On to `COc1ccc(C(=O)Nc2ccc(NC(=N)N)c(OCc3cc(OC)ccc3OC)c2)cc1`, for which the IC50 in the data set on Trypanosoma brucei [1] came out at 0.899 µM. For the same compound, the selectivity ratio was 211 in data set [2] and over 556 in data set [5]. For the same compound, the IC50 at 48 h in data set [3] was 190 µM; in data set [4] it was over 500 µM.
As for `CN(c1ccc(NC(=O)c2ccc(C(=N)N)cc2)cc1OCc1ccc(C(F)(F)F)cc1)S(=O)(=O)Cc1ccccc1`, the IC50 with Trypanosoma brucei [1] turned out to be 28.4 µM. In addition, the results for the selectivity ratio in data set [2] and in data set [5] were 17.6 and over 17.6, respectively. Further, the IC50 at 48 h in data set [3] and in data set [4] was over 500 µM in each case.
